Values of other authors in patent publication US20110281902A1, “COMBINATIONS COMPRISING A PROTEIN KINASE INHIBITOR BEING A PYRIMIDYLAMINOBENZAMIDE COMPOUND AND A HSP90 INHIBITOR SUCH AS 17-AAG” (priority 2005, published 2011).

What was measured:
[1] = makes it difficult to formulate/administer
[2] = clinical trials in hematological malignancies and solid tumors

C=CCNC1=C2C[C@@H](C)C[C@H](OC)[C@H](O)[C@@H](C)/C=C(\C)[C@H](OC(N)=O)[C@@H](OC)/C=C\C=C(/C)C(=O)NC(=CC1=O)C2=O [17-AAG, 17-allylamino-17-demethoxygeldanamycin]
solubility [1]: poor solubility
dose limiting toxicity [2]: hepatic
